“And” between values parts separate entries of the source, which are not always exact repeats. Equal entries are not always repeated. Inconclusive results and toxic doses are left out. Peptide text beside a SMILES is read from it. * marks the point of attachment. Boc = CC(C)(C)OC(=O)*
System: P388 leukemia ip, CD2F1 mice, survival T/C
Assay: NCI In Vivo Anticancer Drug Screen. Data for tumor model P388 Leukemia (intraperitoneal) in CD2F1 (CDF1) mice
Conditions: endpoint: median survival time, higher = longer survival
Procedure, shortened: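 Mice carrying the transplanted tumor received test compound or vehicle. Survival was recorded in each group, and the value is the treated-group measurement divided by that of the vehicle-treated control group.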

[1] = dose: 100.0 mg/kg/injection, schedule: Q01DX009 (ip), vehicle: saline with Tween-80
[2] = dose: 200.0 mg/kg/injection, schedule: Q01DX009 (ip), vehicle: saline with Tween-80
[3] = dose: 50.0 mg/kg/injection, schedule: Q01DX005 (ip), vehicle: saline with Tween-80
[4] = dose: 100.0 mg/kg/injection, schedule: Q01DX005 (ip), vehicle: saline with Tween-80
[5] = dose: 200.0 mg/kg/injection, schedule: Q01DX005 (ip), vehicle: saline with Tween-80
[6] = dose: 50.0 mg/kg/injection, schedule: Q01DX005 (ip), vehicle: Klucel (hydroxypropylcellulose) (HPC)
[7] = dose: 100.0 mg/kg/injection, schedule: Q01DX005 (ip), vehicle: Klucel (hydroxypropylcellulose) (HPC)
[8] = dose: 200.0 mg/kg/injection, schedule: Q01DX005 (ip), vehicle: Klucel (hydroxypropylcellulose) (HPC)
[9] = dose: 50.0 mg/kg/injection, schedule: Q01DX009 (ip), vehicle: saline with Tween-80
[10] = dose: 50.0 mg/kg/injection, schedule: Q01DX009 (ip), vehicle: Klucel (hydroxypropylcellulose) (HPC)
[11] = dose: 100.0 mg/kg/injection, schedule: Q01DX009 (ip), vehicle: Klucel (hydroxypropylcellulose) (HPC)
[12] = dose: 60.0 mg/kg/injection, schedule: Q01DX005 (ip), vehicle: saline with Tween-80
[13] = dose: 120.0 mg/kg/injection, schedule: Q01DX005 (ip), vehicle: saline with Tween-80
[14] = dose: 240.0 mg/kg/injection, schedule: Q01DX005 (ip), vehicle: saline with Tween-80
[15] = dose: 25.0 mg/kg/injection, schedule: Q01DX009 (ip), vehicle: saline
[16] = dose: 50.0 mg/kg/injection, schedule: Q01DX009 (ip), vehicle: saline

COC(=O)CCCCCC(O)C1CCC2OC(=O)CC21C (stereo not given)
T/C [1]: 118 % of control
T/C [2]: 100 % of control
T/C (dose: 400.0 mg/kg/injection, schedule: Q01DX009 (ip), vehicle: saline with Tween-80): 100 % of control

C[C@@H](N)C(=O)NC(CO)CC(N)C=O (stereo not given in full)
T/C (dose: 50.0 mg/kg/injection, schedule: Q04DX002 (ip), vehicle: saline): 105 % of control and 115 % of control
T/C (dose: 100.0 mg/kg/injection, schedule: Q04DX002 (ip), vehicle: saline): 111 % of control and 120 % of control
T/C (dose: 200.0 mg/kg/injection, schedule: Q04DX002 (ip), vehicle: saline): 109 % of control and 121 % of control
T/C (dose: 400.0 mg/kg/injection, schedule: Q04DX002 (ip), vehicle: saline): 122 % of control

O=C(C#Cc1ccccc1)c1cccnc1
T/C (dose: 12.5 mg/kg/injection, schedule: Q04DX003 (ip), vehicle: Klucel (hydroxypropylcellulose) (HPC)): 107 % of control
T/C (dose: 25.0 mg/kg/injection, schedule: Q04DX003 (ip), vehicle: Klucel (hydroxypropylcellulose) (HPC)): 107 % of control

Cc1ccc(N(CC(=O)O)S(=O)(=O)c2ccccc2)c(C)c1Cc1cccc(Br)c1
T/C [3]: 101 % of control
T/C [4]: 104 % of control
T/C [5]: 101 % of control

O=C1c2ccccc2C(=O)N1CN1C(=O)c2ccccc2S1(=O)=O
T/C [6]: 93 % of control
T/C [7]: 98 % of control

CCN(Cc1cc(Nc2ccnc3cc(Cl)ccc23)ccc1O)C(=O)N1CCN(C)CC1
T/C (dose: 100.0 mg/kg/injection, schedule: Q04DX002 (ip), vehicle: Klucel (hydroxypropylcellulose) (HPC)): 100 % of control
T/C (dose: 200.0 mg/kg/injection, schedule: Q04DX002 (ip), vehicle: Klucel (hydroxypropylcellulose) (HPC)): 96 % of control
T/C (dose: 400.0 mg/kg/injection, schedule: Q04DX002 (ip), vehicle: Klucel (hydroxypropylcellulose) (HPC)): 96 % of control

COC(=O)C(Cc1ccccc1)NC(=O)C(Cc1ccccc1)NC(=O)OC(C)(C)C (stereo not drawn) (Boc-Phe-Phe-OMe; configuration not given here)
T/C [6]: 97 % of control
T/C [7]: 95 % of control
T/C [8]: 101 % of control

CN1N=Cc2sc(Br)c(Br)c2B1O
T/C [9]: 94 % of control
T/C [1]: 101 % of control
T/C [2]: 94 % of control

Cc1ccc(SSc2nnnn2C)cc1
T/C [10]: 100 % of control
T/C [11]: 88 % of control

C/C(=C\C(=O)Nc1ccc(S(=O)(=O)F)cc1)c1ccc([N+](=O)[O-])cc1
T/C [12]: 100 % of control
T/C [13]: 102 % of control
T/C [14]: 90 % of control

O=C(c1ccccc1)c1ccc[n+](Cc2c(Cl)cccc2Cl)c1
T/C (dose: 6.25 mg/kg/injection, schedule: Q01DX009 (ip), vehicle: saline): 101 % of control and 98 % of control
T/C (dose: 12.5 mg/kg/injection, schedule: Q01DX009 (ip), vehicle: saline): 102 % of control and 105 % of control
T/C [15]: 105 % of control and 111 % of control and 123 % of control
T/C [16]: 108 % of control and 114 % of control and 117 % of control

Cc1ccc(C)c(NC(=O)Nc2ccc(CCO)cc2)c1
T/C [10]: 102 % of control
T/C [11]: 102 % of control
T/C (dose: 200.0 mg/kg/injection, schedule: Q01DX009 (ip), vehicle: Klucel (hydroxypropylcellulose) (HPC)): 99 % of control

BrCc1cn2ccccc2n1
T/C [15]: 92 % of control
T/C [16]: 100 % of control
T/C (dose: 100.0 mg/kg/injection, schedule: Q01DX009 (ip), vehicle: saline): 104 % of control

COc1cc2c[n+](C)c3c4cc(OC)c(OC)cc4c(O)cc3c2cc1OC
T/C [6]: 99 % of control
T/C [7]: 97 % of control
T/C [8]: 99 % of control

Nc1ccc(-c2ccc(C(=O)O)cc2)cc1
T/C [12]: 104 % of control
T/C [13]: 106 % of control
T/C [14]: 109 % of control

CCC1(/C=N/NC(N)=O)NC(=O)NC1=O (stereo not given)
T/C [3]: 93 % of control
T/C [4]: 96 % of control
T/C [5]: 88 % of control

CCCCCCCCCCCCCCCC(=O)OC(=O)CCCCCCCCCCCCCCC
T/C [9]: 100 % of control
T/C [1]: 95 % of control
T/C [2]: 94 % of control
